Counter-ions that a name gives are not always drawn. Like-named read-outs stand apart in the source and are kept apart here.
Tests used:
[1] = saturated solution; cited from earlier work
[2] = cited from earlier work
[3] = in man; cited from earlier work
in vivo = conditions: dog, iv
Procedure: Single IV doses were given to each of a group of four beagle dogs: 5 mg of propranolol free base was dissolved in 3 ml sterile sodium chloride solution USP. The solution was infused over a 20 second period through an in-line millipore filter. Blood samples (1 ml) were withdrawn at desired intervals postinfusion. The IV results are shown as a " ." Similarly, blood plasma samples were withdrawn and analyzed for oral administration of 80 mg propranolol in immediate release form (" ") and the polymer coated dosage delivery form of section A. above ("+").
DDT is indicated by the release of citric acid from the drug-containing core which causes a spike in the pH time profile. The pH will remain depressed for the duration of the dissolution of the citric acid.
Blood samples (1 ml) were withdrawn at 5, 10, 15, 20, 30, 40, 50, 60, 70, 80, 90, 105, 120, 150, 180, 240, 300, 360 and 420 minutes after dosing for the immediate release dosage form. For the polymer coated tablets, the sampling schedule began at the time of coating dissolution (CDT). After dissolution, blood samples (1 ml) were withdrawn at 5, 15, 30, 45, 60, 90, 120, 190, 240, 300, 360 and 420 minutes.

[4] = list of drugs with nonlinear kinetics

SMILES	F [2, 4]	further results
[Cl-].[Na+] [sodium chloride]	–	osmotic pressure [1]: 5250 psi
C#C[C@]1(O)CC[C@H]2[C@@H]3CCc4cc(O)ccc4[C@H]3CC[C@@]21C [Ethinylestradiol]	0.4	–
CC(C)C[C@H]1C(=O)N2CCC[C@H]2[C@]2(O)O[C@](NC(=O)[C@@H]3C=C4c5cccc6[nH]c(Br)c(c56)C[C@H]4N(C)C3)(C(C)C)C(=O)N12 [Bromocriptine Mesylate]	0.6	–
CC(C)NCC(O)COc1cccc2ccccc12 (stereo not shown) [propranolol]	–	biological half-life [3]: two to six; half-life (in vivo; half-life): 1.97 h; half-life (in vivo; terminal phase half-life): ~2 h
C[C@H]1C[C@@H]2[C@H]([C@@H](O)C[C@@]3(C)[C@H]2CC[C@]3(O)C(=O)CO)[C@@]2(C)C=CC(=O)C=C12 [Methylprednisolone]	0.85	–
CN/C(=N/CCSCc1nc[nH]c1C)NC#N [Cimetidine]	0.7	–
C[C@]12C=CC(=O)C=C1CC[C@@H]1[C@@H]2C(=O)C[C@@]2(C)[C@H]1CC[C@]2(O)C(=O)CO [Prednisone]	–	F ([2]; in vivo): 0.85
C#C[C@]1(O)CC[C@H]2[C@@H]3CCC4=CC(=O)CC[C@@H]4[C@H]3CC[C@@]21C [Norethindrone]	0.65	–
